The values below come from patent US10821115B2, “Compounds that inhibit Mcl-1 protein” (priority 2017, dated 2020).

Read-outs that look alike come from different tables or passages of the source.

The target of test [1] is recombinant human Mcl-1 (residues 171-327) / Bim interaction (Homo sapiens (Human), UniProt Q07820). Kind of test: biochemical. The test is classed as binding. The note with it: read-out: Mcl-1 HTRF IC50. For orientation: In TR-FRET formats the signal depends on donor and acceptor labels being close together.
For test [2], the system named is human multiple myeloma cell line, OPM-2. In words: Cell viability assay (OPM-2 10 FBS), CellTiter-Glo. The test is classed as cell-based. The essentials: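 Serially diluted test compounds are incubated 16 h with cells (3000/well) in RPMI 1640 supplemented with 10% FBS. Viability is then measured by luminescence and IC50 calculated by 4-parameter logistic fit.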
Background: Cellular ATP, detected with luciferase, serves as a proxy for viable cell number.

Setting [3] is: 0.1 nM Mcl-1(171-327), 0.05 nM biotin-Bim (51-76).
The mark [4] stands for this setting: read-out: OPM-2 10% FBS IC50 IP, OPM-2 cells, 10% FBS, 16 h incubation.
Where [5] appears, read: TR-FRET, Mcl-1(171-327) / biotin-Bim (51-76).
Where [6] appears, read: read-out: OPM-2 10% FBS IC50 IP, OPM-2 cells, 10% FBS, 16 h, CellTiter-Glo.
Where [7] appears, read: Homo sapiens, OPM-2, 16 h, read-out: OPM-2 10% FBS IC50 IP, OPM-2 cells, 10% FBS, 16 h, CellTiter-Glo.
The mark [8] stands for this setting: Homo sapiens, OPM-2, 16 h, read-out: OPM-2 10% FBS IC50 IP, OPM-2 cells, 10% FBS, 16 h incubation.

Sequence of recombinant human Mcl-1 (residues 171-327) / Bim interaction (Q07820 171-327): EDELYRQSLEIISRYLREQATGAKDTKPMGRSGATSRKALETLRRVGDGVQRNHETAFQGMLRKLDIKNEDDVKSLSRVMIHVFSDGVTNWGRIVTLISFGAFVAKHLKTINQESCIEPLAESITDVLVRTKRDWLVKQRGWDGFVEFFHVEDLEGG

Broadly, the IC50 is the concentration at which inhibition is half-maximal. In the case of `CO[C@@]1(CN2CCN([C@H]3CCOC3)CC2)/C=C/C[C@H](C)[C@@H](C)S(=O)(=O)NC(=O)c2ccc3c(c2)N(C[C@@H]2CC[C@H]21)C[C@@]1(CCCc2cc(Cl)ccc21)CO3` (single isomer, unassigned) [Example 285], the IC50 amounted to 0.107 nM in test [1] (setting [3]) and 62 nM in test [2] (setting [4]).
As to `C=CC[C@@]1(O)/C=C/C[C@H](C)[C@@H](C)S(=O)(=O)NC(=O)c2ccc3c(c2)N(C[C@@H]2CC[C@H]21)C[C@@]1(CCCc2cc(Cl)ccc21)CO3` [Example 100130, (1S,3′R,6′R,7′R,8′E,11′S,12′R)-6-chloro-7′-hydroxy-11′,12′-dimethyl-7′-(2-propen-1-yl)-3,4-dihydro-2H,15′H-spiro[naphthalene-1,22′-[20]oxa[13]thia[1,14]diazatetracyclo [14.7.2.0~3,6~.0~19,24~]pentacosa[8,16,18,24]tetraen]-15′-one 13′,13′-dioxide], the 50% inhibitory concentration (IC50) in test [1] (setting [5]) was determined as 2.69 nM; in test [2] (setting [6]) it was 2170 nM.
On to `C[C@@H]1[C@@H](C)CCC[C@@](O)([C@@H]2OCCN(C)C2=O)[C@@H]2CC[C@H]2CN2C[C@@]3(CCCc4cc(Cl)ccc43)COc3ccc(cc32)C(=O)NS1(=O)=O` [Example 100205, (1S,3′R,6′R,7′S,11′S,12′R)-6-chloro-7′-hydroxy-11′,12′-dimethyl-7′-((2S)-4-methyl-3-oxo-2-morpholinyl)-3,4-dihydro-2H,15′H-spiro[naphthalene-1,22′-[20]oxa[13]thia[1,14]diazatetracyclo [14.7.2.0~3,6~.0~19,24~]pentacosa[16,18,24]trien]-15′-one 13′,13′-dioxide], for which the half-maximal inhibitory concentration (IC50) in test [1] (setting [5]) is 0.206 nM; in test [2] (setting [7]), 68 nM.
Take `COCC[C@@H]1[C@@H](C)C/C=C/[C@@](CN2CCN(C(C)C)CC2)(OC)[C@@H]2CC[C@H]2CN2C[C@@]3(CCCc4cc(Cl)ccc43)COc3ccc(cc32)C(=O)NS1(=O)=O` [Example 188, (1S,3′R,6′R,7′R,8′E,11′S,12′R)-6-chloro-7′-methoxy-12′-(2-methoxyethyl)-11′-methyl-7′-((4-(1-methylethyl)-1-piperazinyl)methyl)-3,4-dihydro-2H,15′H-spiro[naphthalene-1,22′-[20]oxa[13]thia[1,14]diazatetracyclo [14.7.2.0~3,6~.0~19,24~]pentacosa[8,16,18,24]tetraen]-15′-one 13′,13′-dioxide]: the half-maximal inhibitory concentration (IC50) worked out at 0.084 nM in test [1] (setting [3]) and 38 nM in test [2] (setting [8]).
Take `C[C@@H]1[C@@H](C)C/C=C/[C@]2(CN3CCN(C)C[C@@H]3CO2)[C@@H]2CC[C@H]2CN2C[C@@]3(CCCc4cc(Cl)ccc43)COc3ccc(cc32)C(=O)NS1(=O)=O` (single isomer, unassigned) [Example 133]: the half-inhibitory concentration (IC50) in test [1] (setting [3]) was determined as 0.189 nM; in test [2] (setting [4]), 136 nM.
Turning to `COCC[C@H]1[C@@H](C)C/C=C/[C@](CN2CCN3CCOC[C@@H]3C2)(OC)[C@@H]2CC[C@H]2CN2C[C@@]3(CCCc4cc(Cl)ccc43)COc3ccc(nc32)C(=O)NS1(=O)=O` [Example 22, (1S,3′R,6′R,7′S,8′E,11′S,12′S)-6-chloro-7′-((9aS)-hexahydropyrazino[2,1-c][1,4]oxazin-8(1H)-ylmethyl)-7′-methoxy-12′-(2-methoxyethyl)-11′-methyl-3,4-dihydro-2H,15′H-spiro[naphthalene-1,22′-[20]oxa[13]thia[1,14,25]triazatetracyclo [14.7.2.0~3,6~.0~19,24~]pentacosa[8,16,18,24]tetraen]-15′-one 13′,13′-dioxide], the IC50 was 0.669 nM in test [1] (setting [3]) and 2230 nM in test [2] (setting [8]).
As for `CO[C@@]1(CN2CCN(c3cccnc3)CC2)/C=C/C[C@H](C)[C@@H](C)S(=O)(=O)NC(=O)c2ccc3c(c2)N(C[C@@H]2CC[C@H]21)C[C@@]1(CCCc2cc(Cl)ccc21)CO3` [Example 253, (1S,3′R,6′R,7′S,8′E,11′S,12′R)-6-chloro-7′-methoxy-11′,12′-dimethyl-7′-((4-(3-pyridinyl)-1-piperazinyl)methyl)-3,4-dihydro-2H,15′H-spiro[naphthalene-1,22′-[20]oxa[13]thia[1,14]diazatetracyclo [14.7.2.0~3,6~.0~19,24~]pentacosa[8,16,18,24]tetraen]-15′-one 13′,13′-dioxide], the 50% inhibitory concentration (IC50) in test [1] (setting [3]) was 0.804 nM; in test [2] (setting [8]), 887 nM.
On to `CO[C@@]1(CN2CCc3nocc3C2)/C=C/C[C@H](C)[C@@H](C)S(=O)(=O)NC(=O)c2ccc3c(c2)N(C[C@@H]2CC[C@H]21)C[C@@]1(CCCc2cc(Cl)ccc21)CO3` [Example 200], for which the 50% inhibitory concentration (IC50) amounted to 0.315 nM in test [1] (setting [3]) and 583 nM in test [2] (setting [8]).
On to `CO[C@]1(CCN2CCN3CCOC[C@@H]3C2)/C=C/C[C@H](C)[C@@H](C)S(=O)(=O)NC(=O)c2ccc3c(c2)N(C[C@@H]2CC[C@H]21)C[C@@]1(CCCc2cc(Cl)ccc21)CO3` [Example 100425, (1S,3′R,6′R,7′R,8′E,11′S,12′R)-6-chloro-7′-(2-((9aS)-hexahydropyrazino[2,1-c][1,4]oxazin-8(1H)-yl)ethyl)-7′-methoxy-11′,12′-dimethyl-3,4-dihydro-2H,15′H-spiro[naphthalene-1,22′-[20]oxa[13]thia[1,14]diazatetracyclo [14.7.2.0~3,6~.0~19,24~]pentacosa[8,16,18,24]tetraen]-15′-one 13′,13′-dioxide], for which the IC50 is 0.165 nM in test [1] (setting [5]) and 717 nM in test [2] (setting [7]).
On to `CO[C@@]1(CCOS(C)(=O)=O)/C=C/C[C@H](C)[C@@H](C)S(=O)(=O)NC(=O)c2ccc3c(c2)N(C[C@@H]2CC[C@H]21)C[C@@]1(CCCc2cc(Cl)ccc21)CO3` [Example 100364, 2-((1S,3′R,6′R,7′S,8′E,11′S,12′R)-6-chloro-7′-methoxy-11′,12′-dimethyl-13′,13′-dioxido-15′-oxo-3,4-dihydro-2H-spiro[naphthalene-1,22′-[20]oxa[13]thia[1,14]diazatetracyclo [14.7.2.0~3,6~.0~19,24~]pentacosa[8,16,18,24]tetraen]-7′-yl)ethyl methanesulfonate], for which the figures for the IC50 in test [1] (setting [5]) and in test [2] (setting [7]) were 1.16 nM and 1680 nM, respectively.
For `C[C@@H]1[C@@H](C)C/C=C/[C@@](O)([C@@H](O)C(=O)N(C)C)[C@@H]2CC[C@H]2CN2C[C@@]3(CCCc4cc(Cl)ccc43)COc3ccc(cc32)C(=O)NS1(=O)=O` [Example 100289, (2R)-2-((1S,3′R,6′R,7′S,8′E,11′S,12′R)-6-chloro-7′-hydroxy-11′,12′-dimethyl-13′,13′-dioxido-15′-oxo-3,4-dihydro-2H-spiro[naphthalene-1,22′-[20]oxa[13]thia[1,14]diazatetracyclo [14.7.2.0~3,6~.0~19,24~]pentacosa[8,16,18,24]tetraen]-7′-yl)-2-hydroxy-N,N-dimethylethanamide], the values for the IC50 in test [1] (setting [5]) and in test [2] (setting [7]) were 0.878 nM and 3960 nM, respectively.
Regarding `C[C@@H]1[C@@H](C)C/C=C/[C@@](O)(C#CCN2CCCCC2)[C@@H]2CC[C@H]2CN2C[C@@]3(CCCc4cc(Cl)ccc43)COc3ccc(cc32)C(=O)NS1(=O)=O` [Example 100424, (1S,3′R,6′R,7′S,8′E,11′S,12′R)-6-chloro-7′-hydroxy-11′,12′-dimethyl-7′-(3-(1-piperidinyl)-1-propyn-1-yl)-3,4-dihydro-2H,15′H-spiro[naphthalene-1,22′-[20]oxa[13]thia[1,14]diazatetracyclo [14.7.2.0~3,6~.0~19,24~]pentacosa[8,16,18,24]tetraen]-15′-one 13′,13′-dioxide], the concentration for half-maximal inhibition (IC50) was found to be 0.249 nM in test [1] (setting [5]) and 469 nM in test [2] (setting [6]).
For the compound `CO[C@]1(CN2CCN3CCS(=O)(=O)C[C@@H]3C2)/C=C/C[C@H](C)[C@@H](C)S(=O)(=O)NC(=O)c2ccc3c(c2)N(C[C@@H]2CC[C@H]21)C[C@@]1(CCCc2cc(Cl)ccc21)CO3` (single isomer, unassigned) [Example 220], the figures for the concentration for half-maximal inhibition (IC50) in test [1] (setting [3]) and in test [2] (setting [4]) were 0.052 nM and 42 nM, respectively.
As to `CO[C@@]1(C[C@@H](C)O)/C=C/C[C@H](C)[C@@H](C)S(=O)(=O)NC(=O)c2ccc3c(c2)N(C[C@@H]2CC[C@H]21)C[C@@]1(CCCc2cc(Cl)ccc21)CO3` [Example 100436, (1S,3′R,6′R,7′S,8′E,11′S,12′R)-6-chloro-7′-((2R)-2-hydroxypropyl)-7′-methoxy-11′,12′-dimethyl-3,4-dihydro-2H,15′H-spiro[naphthalene-1,22′-[20]oxa[13]thia[1,14]diazatetracyclo [14.7.2.0~3,6~.0~19,24~]pentacosa[8,16,18,24]tetraen]-15′-one 13′,13′-dioxide], the IC50 in test [1] (setting [5]) worked out at 0.076 nM; in test [2] (setting [6]) it was 335 nM.
Turning to `CO[C@]1(CN2C[C@@H](C)N(C)[C@@H](C)C2)/C=C/C[C@H](C)[C@@H](C)S(=O)(=O)NC(=O)c2ccc3c(c2)N(C[C@@H]2CC[C@H]21)C[C@@]1(CCCc2cc(Cl)ccc21)CO3` [Example 336, (1S,3′R,6′R,7′R,8′E,11′S,12′R)-6-chloro-7′-methoxy-11′,12′-dimethyl-7′-(((3R,5S)-3,4,5-trimethyl-1-piperazinyl)methyl)-3,4-dihydro-2H,15′H-spiro[naphthalene-1,22′-[20]oxa[13]thia[1,14]diazatetracyclo [14.7.2.0~3,6~.0~19,24~]pentacosa[8,16,18,24]tetraen]-15′-one 13′,13′-dioxide], the IC50 worked out at 0.085 nM in test [1] (setting [3]) and 51 nM in test [2] (setting [8]).
As for `C[C@@H]1[C@@H](C)CCC[C@@](O)(C[C@H]2CCCN(C)C2)[C@@H]2CC[C@H]2CN2C[C@@]3(CCCc4cc(Cl)ccc43)COc3ccc(cc32)C(=O)NS1(=O)=O` (single isomer, unassigned) [Example 100398], the IC50 in test [1] (setting [5]) is 0.618 nM; in test [2] (setting [7]), 457 nM.
